Source: patent US20240148714A1, “Triple Negative Breast Cancer Treatment Method” (Exelixis, Inc., priority 2016, published 2024)
Several values for one entry are separate records, joined by “and”; a condition that tells them apart may be missing. Equal values may be shown once.

Tests used:
metastatic TNBC = assay: Phase II study of cabozantinib in metastatic TNBC: objective response (RECIST 1.1), clinical benefit, PFS; assay type: in vivo, human
Description: (§1) Experimental design: In this single-arm, two-stage phase 2 study, patients with metastatic TNBC with measurable disease by RECIST and up to 3 lines of prior chemotherapy for metastatic disease received cabozantinib 60 mg daily on a 21-day cycle. Patients were restaged 6 weeks following treatment initiation and every 9 weeks thereafter. The primary endpoint was objective response rate (ORR). Predefined secondary endpoints included progression free survival (PFS) and toxicity. Here, we examined cellular biomarkers using flow cytometry in serial blood samples collected at days 0 (baseline/pre-treatment), 8, 22, 43, and 64 of cabozantinib treatment. Mixed effect models were used to evaluate the changes of biomarker levels over time from baseline to day 64. Wilcoxon signed rank test were used to evaluate whether the change of biomarker levels from baseline to day 8 were different by clinical benefit. Adjusted p-values controlling false discovery rate were used to adjust for multiple comparisons.
(§2) Study Design and Treatment: As indicated, this was a single-arm, two-stage phase II study assessing the efficacy of cabozantinib monotherapy in patients with mTNBC. Treatment consisted of oral dosing of cabozantinib at 60 mg daily over a 21-day cycle. Patients underwent radiographic restaging at 6 weeks and every 9 weeks thereafter. Patients with complete or partial RECIST responses continued to receive study treatment, whereas those with progressive disease were taken off study. Dose reductions for toxicity occurred if patients experienced grade 3 or 4 neutropenia or thrombocytopenia, or nonhematologic adverse events. From the starting dose of 60 mg daily, doses were reduced as needed to 40 and 20 mg daily. For the purposes of determining the effect of cabozantinib treatment on pain and analgesic medication use, pain was assessed by a participant-reported questionnaire, and daily analgesic medication usage was recorded. These were completed at baseline and during week 3, 6, and every 6 weeks thereafter until the date of the participant's last follow-up visit.
(§3) The primary endpoint was the activity of cabozantinib, as defined by objective response rate (ORR) in patients with mTNBC. Predefined secondary endpoints included progression-free survival (PFS), toxicity, and pain. Correlative studies included analysis of MET and phospho-MET expression in archival tumor tissue, and molecular and cellular biomarkers of cabozantinib. Cellular biomarkers were examined using flow cytometry in serial blood samples collected at days 0 (baseline/pre-treatment), 8, 22, 43, and 64 of cabozantinib treatment. Mixed effect models were used to evaluate the changes of biomarker levels over time from baseline to day 64. Wilcoxon signed rank test were used to evaluate whether the change of biomarker levels from baseline to day 8 were different by clinical benefit. Adjusted p-values controlling false discovery rate were used to adjust for multiple comparisons.
Statistical Analysis: This study used Simon optimal two-stage design to control type I error at 10% and have at least 90% power to detect the acceptable response rate. By study design, 13 participants were to be enrolled in the first stage. If there was at least 1 response, accrual was to continue to the second stage, where an additional 22 patients were to be enrolled. If there were at least 4 responses among the 35 total patients, the regimen was to be considered worthy of further study. With a true response rate of 5%, the chance that the regimen would be declared worthy of further study was 10%, and with a true response rate of 20%, the chance that the regimen would be declared worthy of further study was 90%.
Objective response was evaluated by using RECIST1.1. […] Objective response rate was reported with 95% confidence interval (CI) for the two stage designs. PFS and 95% CI were described using Kaplan-Meier methods. […]

[1] = Phase II study in metastatic TNBC: toxicity / adverse events; assay type: in vivo, human
Description: as §1, §2, §3

Structure (SMILES): COc1cc2nccc(Oc3ccc(NC(=O)C4(C(=O)Nc5ccc(F)cc5)CC4)cc3)c2cc1OC [cabozantinib]
- clinical benefit rate (PR+SD) at 15 weeks (metastatic TNBC; 60 mg daily, 35 patients): 34%
- median PFS (metastatic TNBC; 60 mg daily, 35 patients): 2.0 months
- objective response rate (ORR) (metastatic TNBC; 60 mg daily, 35 patients, as previously reported (ASCO 2015)): 11%
- objective response rate (ORR) (metastatic TNBC; 60 mg daily, 35 patients, confirmed PR, RECIST 1.1): 9%
- time on treatment of individual patients with PR (metastatic TNBC; 17 cycles and 8 cycles of protocol therapy): 11.7 months and 6.5 months
- Best overall response: Not evaluated due to toxicity (metastatic TNBC; 35 patients): 1 (3) n (%)
- Best overall response: PD (metastatic TNBC; 35 patients): 11 (31) n (%)
- Best overall response: PR (metastatic TNBC; 35 patients): 3 (9) n (%)
- Best overall response: SD (metastatic TNBC; 35 patients): 20 (57) n (%)
- Best overall response: SD <15 weeks (metastatic TNBC; 35 patients): 11 (31) n (%)
- Best overall response: SD ≥15 weeks (metastatic TNBC; 35 patients): 9 (26) n (%)
- median PFS (metastatic TNBC; high baseline sMET (>795 ng/mL median value)): 3.3 months
- patients off treatment due to progressive disease (metastatic TNBC; human, in vivo): 91%
- patients with clinically progressive disease before protocol specified tumor assessment (metastatic TNBC; included in PD): ^aIncluding 7 patients(20%) with clinically progressive disease before protocol specified tumor assessment.
- median PFS (metastatic TNBC; low baseline sMET (<795 ng/mL)): 1.3 months
- patients who achieved PR (metastatic TNBC; of 35 patients): 3 patients
- number of grade 3 adverse events ([1]; 35 patients): 15
- Anorexia ([1]; Maximum grade Mild): 10
- Bone pain ([1]; Maximum grade Mild): 0
- Diarrhea ([1]; Maximum grade Mild): 8
- Dysgeusia ([1]; Maximum grade Mild): 5
- Elavated lipase ([1]; Maximum grade Mild): 0
- Elevated alanine aminotransferase ([1]; Maximum grade Mild): 6
- Elevated aspartate aminotransferase ([1]; Maximum grade Mild): 7
- Fatigue ([1]; Maximum grade Mild): 18
- Hypertension ([1]; Maximum grade Mild): 6
- Hypophosphatemia ([1]; Maximum grade Mild): 0
- Infection ([1]; Maximum grade Mild): 0
- Nausea ([1]; Maximum grade Mild): 10
- Oral mucositis ([1]; Maximum grade Mild): 11
- PPE ([1]; Maximum grade Mild): 3
- Prolonged activated partial thromboplastin time ([1]; Maximum grade Mild): 0
- Thromboembolic event ([1]; Maximum grade Mild): 0
- Wound dehiscence ([1]; Maximum grade Mild): 0
- Anorexia ([1]; Maximum grade Moderate): 2
- Bone pain ([1]; Maximum grade Moderate): 0
- Diarrhea ([1]; Maximum grade Moderate): 6
- Dysgeusia ([1]; Maximum grade Moderate): 2
- Elavated lipase ([1]; Maximum grade Moderate): 0
- Elevated alanine aminotransferase ([1]; Maximum grade Moderate): 0
- Elevated aspartate aminotransferase ([1]; Maximum grade Moderate): 3
- Fatigue ([1]; Maximum grade Moderate): 9
- Hypertension ([1]; Maximum grade Moderate): 4
- Hypophosphatemia ([1]; Maximum grade Moderate): 0
- Infection ([1]; Maximum grade Moderate): 0
- Nausea ([1]; Maximum grade Moderate): 0
- Oral mucositis ([1]; Maximum grade Moderate): 2
- PPE ([1]; Maximum grade Moderate): 9
- Prolonged activated partial thromboplastin time ([1]; Maximum grade Moderate): 0
- Thromboembolic event ([1]; Maximum grade Moderate): 0
- Wound dehiscence ([1]; Maximum grade Moderate): 0
- Anorexia ([1]; Maximum grade Severe): 0
- Bone pain ([1]; Maximum grade Severe): 1
- Diarrhea ([1]; Maximum grade Severe): 0
- Dysgeusia ([1]; Maximum grade Severe): 0
- Elavated lipase ([1]; Maximum grade Severe): 3
- Elevated alanine aminotransferase ([1]; Maximum grade Severe): 1
- Elevated aspartate aminotransferase ([1]; Maximum grade Severe): 2
- Fatigue ([1]; Maximum grade Severe): 0
- Hypertension ([1]; Maximum grade Severe): 2
- Hypophosphatemia ([1]; Maximum grade Severe): 1
- Infection ([1]; Maximum grade Severe): 1
- Nausea ([1]; Maximum grade Severe): 0
- Oral mucositis ([1]; Maximum grade Severe): 0
- PPE ([1]; Maximum grade Severe): 1
- Prolonged activated partial thromboplastin time ([1]; Maximum grade Severe): 1
- Thromboembolic event ([1]; Maximum grade Severe): 1
- Wound dehiscence ([1]; Maximum grade Severe): 1
- Anorexia ([1]; all grades): 12 (34) Total (% of 35)
- Bone pain ([1]; all grades): 1 (3) Total (% of 35)
- Diarrhea ([1]; all grades): 14 (40) Total (% of 35)
- Dysgeusia ([1]; all grades): 7 (20) Total (% of 35)
- Elavated lipase ([1]; all grades): 3 (9) Total (% of 35)
- Elevated alanine aminotransferase ([1]; all grades): 7 (20) Total (% of 35)
- Elevated aspartate aminotransferase ([1]; all grades): 12 (34) Total (% of 35)
- Fatigue ([1]; all grades): 27 (77) Total (% of 35)
- Hypertension ([1]; all grades): 12 (34) Total (% of 35)
- Hypophosphatemia ([1]; all grades): 1 (3) Total (% of 35)
- Infection ([1]; all grades): 1 (3) Total (% of 35)
- Nausea ([1]; all grades): 10 (29) Total (% of 35)
- Oral mucositis ([1]; all grades): 13 (37) Total (% of 35)
- PPE ([1]; all grades): 13 (37) Total (% of 35)
- Prolonged activated partial thromboplastin time ([1]; all grades): 1 (3) Total (% of 35)
- Thromboembolic event ([1]; all grades): 1 (3) Total (% of 35)
- Wound dehiscence ([1]; all grades): 1 (3) Total (% of 35)
- Diarrhea ([1]; all grades, possibly related): 40%
- Fatigue ([1]; all grades, possibly related): 77%
- Oral mucositis ([1]; all grades, possibly related): 37%
- palmar-plantar erythrodysesthesia (PPE) ([1]; all grades, possibly related): 37%
- patients requiring dose reduction ([1]; from 60 mg daily): 34%
- dose reduction due to PPE ([1]; in vivo): 4 patients
- dose reduction due to other toxicities ([1]; in vivo): 8 patients
- grade 3 elevated aspartate aminotransferase ([1]; in vivo): 2 n
- grade 3 elevated lipase ([1]; in vivo): 3 n
- grade 3 hypertension ([1]; in vivo): 2 n
- grade 4 toxicities ([1]; in vivo): no grade 4 toxicities
- patients off treatment due to toxicity ([1]; in vivo): 9%
- patients who omitted at least one dose due to toxicity ([1]; in vivo): 26 patients
- tolerability ([1]; in vivo): well tolerated
